Tested on: monoclonal antibodies induced by Compound A
Assay: Inhibition of the antibody-catalyzed hydrolysis of Compound 1 by free Compound A
Type: biochemical, mice
Details: all three monoclonal antibodies
Procedure: The production of Compound 2 by a monoclonal antibody composition of this invention was assayed at a concentration of 20 μM monoclonal antibody and 1.5 mM Compound 1 in 10 percent dimethylsulfoxide (DMSO)/ATE buffer (0.52M ACES, 0.52M Tris, 0.01M ethanolamine pH 9.0) at 25° C. The initial rate of hydrolysis of Compound 1 by the monoclonal antibodies produced by three hybridomas followed Michaelis-Menten kinetics (Table 1 hereinafter).

CC1(OP(=O)(O)Cc2ccc(CCN)cc2)CCCCC1 [Compound A]
inhibition of the hydrolytic reaction by addition of free Compound A: extensive inhibition

Source: patent US5250426A, “Molecules with antibody combining sites that induce asymmetry” (The Scripps Research Institute, priority 1991, dated 1993)
